pIC50: −log10 of the molar value.
Experiments:
RU570-VCV virus = assay: Viral replication assay in PBL (p24 ELISA), vicriviroc-passaged culture; type: cell-based, HIV-1
Description: The Hut 78 derived PM-1 (Lusso, P., et al (1995). J Virol 69(6), 3712-20) T-cell line was infected with a parental PBL stock of HIV-1 RU570 for one week prior to the initiation of vicriviroc selection starting at 0.1 nM. PM-1 cell cultures were passaged weekly by transferring 1 ml of cell culture supernatant and one tenth of the infected cells into fresh PM-1 cultures (1-2×10^6) in the absence (passage control culture, RU570-PC) or presence (RU570-VCV) of vicriviroc. Culture supernatants were subsequently used to re-infect fresh PM-1 cells weekly. Viral supernatants and infected cells were collected periodically for p24 antigen titers, vicriviroc sensitivity testing in PBL described below in the viral replication assay section, and sequence analysis. […] To select for minor populations of highly resistant variants that may have emerged, the concentration of vicriviroc was escalated to 10 μM at week 36 and cultures were maintained in 10 μM vicriviroc until viral replication remained consistent. By approximately week 56, VCV-treated cultures were replicating to similar levels compared to the passage control cultures and maintained consistently robust growth up to 93 weeks when cultures were terminated.
IL-2/PHA-stimulated PBL were seeded into 96-well plates (200,000 cells/well) pretreated with an equal volume of medium plus vicriviroc or medium only at 37° C. for 1 hour. The plates were centrifuged at 300 g for 10 min and the media aspirated and replaced with 20 μl of fresh medium with or without compound. The cells were then infected in triplicate using 20 μl of viral supernatant (RU570) from 3 hr to overnight at 37° C. The cells were washed twice with PBS to remove residual viral inoculums and cultured in the presence or absence of vicriviroc for 4-6 days. Viral replication was assessed by measuring p24 antigen production by ELISA. The IC50 and IC90 values for vicriviroc susceptibility with these viruses was determined by analyzing dose-response curves using a 4-parameter logistic curve fit model with Prism GraphPad Software Version 4.0 (San Diego, Calif.).

[1] = system: replication competent HIV-1 virus containing the ADA-C2-V5res chimeric envelope sequence (NL4-3-AD8-C2-V5res); assay: Vicriviroc susceptibility assay with replication competent virus in U87-CD4-CCR5 cells; type: cell-based; conditions: multi-cycle infection
Text: (§1) The pNL4-3-AD8 molecular clone was modified by deleting 650 bp of cDNA sequence flanking the 5′LTR, thereby creating a unique Stu I site within gp120. The ADA-V3res and ADA-C2-V5res chimeric envelopes were digested with StuI and AleI restriction endonucleases and the 1.2 kb env fragments corresponding to at 203-608 (HXB2 gp160 aa coordinates) were gel purified on 1% agarose. These fragments were cloned directly into pNL4-3-AD8 digested with the same restriction endonucleases and all constructs were verified by DNA sequence analysis.
(§2) 293T cells were transfected with pNL4-3-AD8, pNL4-3-AD8-C2-V5res, and pNL4-3-AD8-V3res molecular clones using Superfect transfection reagent (Qiagen Corp., Vencia, Calif.) and HIV-1 virus was harvested in supernatants 48 hr post transfection.
(§3) CCR5 inhibitor resistance was previously reported to be influenced by the assay format in which resistance is evaluated (Pugach, P., et al (2007). Virology 361(1), 212-28). […] In order to evaluate differences in susceptibility profiles between single-cycle and multi-cycle infection assays in U87-CD4-CCR5 cells, we generated replication competent viruses expressing the chimeric gp120 envelopes. Restriction fragments corresponding to HXB2 aa 203-608 within ADA-V3res and ADA-C2-V5res chimeric envelopes were transferred to an NL4-3-AD8 HIV-1 molecular clone by unique restriction-site digestion and relegation. […]

NL4-3-AD8-V3res virus = assay: as above; type: cell-based, HIV-1; conditions: Human immunodeficiency virus 1, NL43, multi-cycle infection
Text: as §1, §2, §3

NL4-3-AD8 virus = assay: as above; type: cell-based, HIV-1; conditions: Human immunodeficiency virus 1, NL43, multi-cycle infection
Text: as §1, §2, §3

[2] = system: pseudovirus with RU570-PC-C2-V5res chimeric envelope; assay: Single-cycle HIV-1 pseudovirus assay, effect of viral inoculum; type: cell-based; conditions: very high inoculum, 90 ng p24
Description: HIV-1 pseudoviruses were produced in 293T cells by calcium phosphate transfection of pNL4-3E^−Luc^+ and HIV-1 envelope expression vectors using ProFection® Mammalian Transfection system (Promega Corp., Madison, Wis.). HIV-1 pseudovirus was harvested in culture supernatants 48 hrs post-transfection and supernatants were clarified of cell debris by centrifugation at 1500 g for 10 min. Single-cycle infection assays were generally performed on the same day HIV-1 pseudovirus was harvested. To assess susceptibility to CCR5 co-receptor antagonists, 5,000 U87-CD4-CCR5 cells/well were seeded into 96-well luminometer plates (Perkin Elmer) and plates were incubated overnight at 37° C. […] Plates were incubated for 72 hours, and luciferase activity was analyzed by adding 50 μl of BrightGlo™ luciferase assay buffer and plates were read on a Dynex luminometer (300 mSec/well). Relative light units (RLU) were normalized to virus dose, measured as ng p24, and percent inhibition, was calculated as follows: 100−[average normalized RLU for HIV-1 pseudovirus plus drug/average normalized RLU for HIV-1 pseudovirus from control wells without drug]×100. Dose-response data was analyzed using a non-linear regression 4-parameter logistic curve fit program with Prism GraphPad Software Version 4.0 (San Diego, Calif.).

[3] = system: pseudoviruses with ADA-C2-V5res chimeric envelope; assay: Single-cycle HIV-1 pseudovirus luciferase assay in U87-CD4-CCR5 cells; type: cell-based
Description: (§4) Homologous recombination of the V2-C5 gp120 fragment from RU570-PC gp120 clone #16 and RU570-VCVres gp120 clone #8 was performed following restriction endonuclease digestion of constructs with MfeI and gel purification of the 838 bp V2-C5 gp120 fragments (HXB2 gp120 nucleotides 533-1431; gp120 at position 185-478). The pSV7d-ADA gp160 expression vector was digested with BglII and BstZ17I restriction endonucleases, alkaline phosphatase treated and the 5.1 kb vector was gel purified on 1% agarose. A 50:1 ratio of V2-C5res gp120 fragment to vector was used to transform chemically-competent BJ5183 E. coli, and individual colonies were screened by PCR for successful recombination.
(§5) HIV-1 pseudoviruses were produced in 293T cells by calcium phosphate transfection of pNL4-3E^−Luc^+ and HIV-1 envelope expression vectors using ProFection® Mammalian Transfection system (Promega Corp., Madison, Wis.). HIV-1 pseudovirus was harvested in culture supernatants 48 hrs post-transfection and supernatants were clarified of cell debris by centrifugation at 1500 g for 10 min. Single-cycle infection assays were generally performed on the same day HIV-1 pseudovirus was harvested. To assess susceptibility to CCR5 co-receptor antagonists, 5,000 U87-CD4-CCR5 cells/well were seeded into 96-well luminometer plates (Perkin Elmer) and plates were incubated overnight at 37° C. The next day serial 10-fold dilutions of inhibitor in cell culture medium ([…]) were added to wells one hour prior to the addition of HIV-1 pseudovirus plus inhibitor. Plates were incubated for 72 hours, and luciferase activity was analyzed by adding 50 μl of BrightGlo™ luciferase assay buffer and plates were read on a Dynex luminometer (300 mSec/well). Relative light units (RLU) were normalized to virus dose, measured as ng p24, and percent inhibition, was calculated as follows: 100−[average normalized RLU for HIV-1 pseudovirus plus drug/average normalized RLU for HIV-1 pseudovirus from control wells without drug]×100. Dose-response data was analyzed using a non-linear regression 4-parameter logistic curve fit program with Prism GraphPad Software Version 4.0 (San Diego, Calif.).

[4] = system: pseudoviruses with ADA-V3res chimeric envelope; assay: as above; type: cell-based
Description: as §4, §5

[5] = system: RU570 passage control virus (RU570-PC); assay: Viral replication assay in PBL (p24 ELISA), passage control culture; type: cell-based, HIV-1; conditions: through 93 weeks of cell culture
Description: The Hut 78 derived PM-1 (Lusso, P., et al (1995). J Virol 69(6), 3712-20) T-cell line was infected with a parental PBL stock of HIV-1 RU570 for one week prior to the initiation of vicriviroc selection starting at 0.1 nM. PM-1 cell cultures were passaged weekly by transferring 1 ml of cell culture supernatant and one tenth of the infected cells into fresh PM-1 cultures (1-2×10^6) in the absence (passage control culture, RU570-PC) or presence (RU570-VCV) of vicriviroc. Culture supernatants were subsequently used to re-infect fresh PM-1 cells weekly. Viral supernatants and infected cells were collected periodically for p24 antigen titers, vicriviroc sensitivity testing in PBL described below in the viral replication assay section, and sequence analysis. […]
IL-2/PHA-stimulated PBL were seeded into 96-well plates (200,000 cells/well) pretreated with an equal volume of medium plus vicriviroc or medium only at 37° C. for 1 hour. […] Viral replication was assessed by measuring p24 antigen production by ELISA. The IC50 and IC90 values for vicriviroc susceptibility with these viruses was determined by analyzing dose-response curves using a 4-parameter logistic curve fit model with Prism GraphPad Software Version 4.0 (San Diego, Calif.).

[6] = system: HIV-1 particles pseudotyped with ADA gp160; assay: Single-cycle HIV-1 pseudovirus luciferase assay in U87-CD4-CCR5 cells; type: cell-based
Description: as §5

[7] = system: HIV-1 particles pseudotyped with VCVres chimeric RU570-PC envelopes (RU570-PC-C2-C3res, -C2-V4res, -C2-V5res); assay: as above; type: cell-based
Description: as §5

[8] = system: HIV-1 particles pseudotyped with RU570-PC gp160 envelope; assay: as above; type: cell-based
Description: as §5

[9] = Human immunodeficiency virus 1, U87/CD4/CCR5

In the case of `COC[C@@H](c1ccc(C(F)(F)F)cc1)N1CCN(C2(C)CCN(C(=O)c3c(C)ncnc3C)CC2)C[C@@H]1C` [vicriviroc, Vicriviroc], the pIC50 (RU570-VCV virus; Human immunodeficiency virus 1, RU570-VCV culture until week 45, PBL) was > 7.30, the maximum percent inhibition (RU570-VCV virus; RU570-VCV culture until week 45, PBL) was 100% and the maximal percent inhibition (RU570-VCV virus; RU570-VCV culture week 45, PBL) was “approximately 76%”. For the same molecule, the maximal percent inhibition (RU570-VCV virus; RU570-VCV culture week 47, PBL) was ~45%, the maximum percent inhibition (RU570-VCV virus; RU570-VCV culture week 93, PBL, flat dose-response curve) was “approximately 30%” and the “MI (maximum inhibition)” value [1] was “approximately 50%”. The pIC50 (NL4-3-AD8-V3res virus) was 10.60, the pIC50 (NL4-3-AD8 virus) was 10.60 and the maximum inhibition [2] was 100%. The “maximum inhibition (MI), plateau level” value ([3]; 2 ng p24 inoculum) was “approximately 80%”, the “susceptibility to vicriviroc (phenotype)” value ([3]; ADA-C2-V5res pseudovirus, U87-CD4-CCR5 cells) was “resistant phenotype” and the “maximum inhibition (MI), plateau level” value ([3]; high virus inocula, 70 ng p24) was “approximately 55%”. For the same molecule, the susceptibility to vicriviroc [4] was “completely susceptible”, the susceptibility to vicriviroc [5] was “remained susceptible” and the pIC50 [6, 9] was 10.40. For the same molecule, the Emax ([6]; Human immunodeficiency virus 1, U87/CD4/CCR5, read-out: maximum response, percent inhibition) was 100%, the MI values ([6]; parental ADA gp160, regardless of the virus concentration (data not shown)) was 100% and the pIC50 [7, 9] was 9.70 to 10.15. The inhibition at 0.1 µM ([7]; Human immunodeficiency virus 1, U87/CD4/CCR5, read-out: maximum inhibition levels) was 100%, the pIC50 [8, 9] was 10.00 and the MI values ([8]; RU570-PC 160 construct, regardless of the virus concentration (data not shown)) was 100%. It also gave a maximum inhibition ([8]; {}) of 100%.

Source: patent US20080220528A1, “HIV GENE CLONING STRATEGY” (SCHERING CORPORATION, priority 2006, published 2008)
